Test results as given in patent publication US9708314B2, “Heterocyclic amide compound” (NISSAN CHEMICAL INDUSTRIES, LTD., priority 2013, dated 2017).

Assays:
Assay type in all cases: in vivo
[1] = test system: Echinochloa oryzacola Vasing.; assay: Test Example 2: herbicidal activity, application during weed generation in submerged conditions; details: Eighteenth Table; application herbicide amount 320 g/ha
Procedure, shortened: (§1)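 Mixed sowings in flooded alluvial soil (4 cm water), greenhouse 25-30 °C; emulsifiable concentrate diluted in water applied to the water surface at the 1-2 leaf stage, rate in g/ha. Effect scored three weeks later on a 0-5 scale (5 = ≥90% herbicidal ratio, 0 = ≤5%).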

[2] = test system: Monochoria vaginalis; assay: as above; details: Eighteenth Table; application herbicide amount 320 g/ha
Procedure, shortened: as §1

[3] = test system: Scirpus juncoides; assay: as above; details: Eighteenth Table; application herbicide amount 320 g/ha
Procedure, shortened: as §1

[4] = test system: Abutilon theophrasti; assay: Test Example 4: herbicidal effect by application to foliage (diluvial soil, plastic box); details: for M: Application herbicide amount 320 g/ha; for M (Abutilon theophrasti) herbicidal effect: application to foliage, application herbicide amount 320 g/ha
Procedure, shortened: (§2)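 Plants were grown in sterilized diluvial soil in a greenhouse at 25-30° C for 14 days, then sprayed on stems and leaves with water-diluted emulsion formulation at set rates in g/ha. Weed control and crop injury were scored 3 weeks after treatment on a 0-5 herbicidal-ratio scale, from 0 (≤5%) to 5 (≥90%).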

[5] = test system: Alopecurus myosuroides; assay: as above; details: for J: Application herbicide amount 320 g/ha; for J (Alopecurus myosuroides) herbicidal effect: application to foliage, application herbicide amount 320 g/ha
Procedure, shortened: as §2

[6] = test system: Apera spica-venti.; assay: as above; details: for L: Application herbicide amount 320 g/ha; for L (Apera spica-venti.) herbicidal effect: application to foliage, application herbicide amount 320 g/ha
Procedure, shortened: as §2

[7] = test system: Avena fatua; assay: as above; details: for I: Application herbicide amount 320 g/ha; for I (Avena fatua) herbicidal effect: application to foliage, application herbicide amount 320 g/ha
Procedure, shortened: as §2

[8] = test system: Chenopodium album; assay: as above; details: for O: Application herbicide amount 320 g/ha; for O (Chenopodium album) herbicidal effect: application to foliage, application herbicide amount 320 g/ha
Procedure, shortened: as §2

[9] = test system: Digitaria ciliaris; assay: as above; details: for F: Application herbicide amount 320 g/ha; for F (Digitaria ciliaris) herbicidal effect: application to foliage, application herbicide amount 320 g/ha
Procedure, shortened: as §2

[10] = test system: Echinochloa crus-galli var. crus-galli; assay: as above; details: for H: Application herbicide amount 320 g/ha; for H (Echinochloa crus-galli var. crus-galli) herbicidal effect: application to foliage, application herbicide amount 320 g/ha
Procedure, shortened: as §2

[11] = test system: Galium spurium; assay: as above; details: for Q: Application herbicide amount 320 g/ha; for Q (Galium spurium) herbicidal effect: application to foliage, application herbicide amount 320 g/ha
Procedure, shortened: as §2

[12] = test system: Lolium multiflorum Lam.; assay: as above; details: for K: Application herbicide amount 320 g/ha; for K (Lolium multiflorum Lam.) herbicidal effect: application to foliage, application herbicide amount 320 g/ha
Procedure, shortened: as §2

[13] = test system: Setaria viridis; assay: as above; details: for G: Application herbicide amount 320 g/ha; for G (Setaria viridis) herbicidal effect: application to foliage, application herbicide amount 320 g/ha
Procedure, shortened: as §2

[14] = test system: Veronica persica; assay: as above; details: for R: Application herbicide amount 320 g/ha; for R (Veronica persica) herbicidal effect: application to foliage, application herbicide amount 320 g/ha
Procedure, shortened: as §2

[15] = test system: Beta vulgaris ssp. vulgaris; assay: Test Example 4: effect on crop by application to foliage (diluvial soil, plastic box); details: for f: Application herbicide amount 320 g/ha, effect on crop; for f (Beta vulgaris ssp. vulgaris) effect on crop: application to foliage, application herbicide amount 320 g/ha
Procedure, shortened: as §2

[16] = test system: Brassica campestris L.; assay: as above; details: for g: Application herbicide amount 320 g/ha, effect on crop; for g (Brassica campestris L.) effect on crop: application to foliage, application herbicide amount 320 g/ha
Procedure, shortened: as §2

[17] = test system: Glycine max; assay: as above; details: for c: Application herbicide amount 320 g/ha, effect on crop; for c (Glycine max) effect on crop: application to foliage, application herbicide amount 320 g/ha
Procedure, shortened: as §2

[18] = test system: Triticum aestivum; assay: as above; details: for e: Application herbicide amount 320 g/ha, effect on crop; for e (Triticum aestivum) effect on crop: application to foliage, application herbicide amount 320 g/ha
Procedure, shortened: as §2

[19] = test system: Zea mays; assay: as above; details: for b: Application herbicide amount 320 g/ha, effect on crop; for b (Zea mays) effect on crop: application to foliage, application herbicide amount 320 g/ha
Procedure, shortened: as §2

[20] = test system: directly sowed Oryza sativa; assay: as above; details: for d: Application herbicide amount 320 g/ha, effect on crop; for d (directly sowed Oryza sativa) effect on crop: application to foliage, application herbicide amount 320 g/ha
Procedure, shortened: as §2

| SMILES | A (Echinochloa oryzicola Vasing.) herbicidal ratio grade [1] | C (Monochoria vaginalis) herbicidal ratio grade [2] | B (Scirpus juncoides) herbicidal ratio grade [3] | M [4] | J [5] | L [6] | I [7] | O [8] | F [9] | H [10] | Q [11] | K [12] | G [13] | R [14] | f [15] | g [16] | c [17] | e [18] | b [19] | d [20] | also measured |
| --- | --- | --- | --- | --- | --- | --- | --- | --- | --- | --- | --- | --- | --- | --- | --- | --- | --- | --- | --- | --- | --- |
| Cc1nnc(NC(=O)c2ccc(C(F)(F)F)n3c(C=O)nnc23)o1 [1-068] | 2 (Herbicidal ratio of 20% or more and less than 40%) | 2 (Herbicidal ratio of 20% or more and less than 40%) | 2 (Herbicidal ratio of 20% or more and less than 40%) | 3 (Herbicidal ratio of 40% or more and less than 70%) | 1 (Herbicidal ratio of 5% or more and less than 20%) | 1 (Herbicidal ratio of 5% or more and less than 20%) | 1 (Herbicidal ratio of 5% or more and less than 20%) | 5 (Herbicidal ratio of 90% or more (almost completely withered)) | 5 (Herbicidal ratio of 90% or more (almost completely withered)) | 5 (Herbicidal ratio of 90% or more (almost completely withered)) | 3 (Herbicidal ratio of 40% or more and less than 70%) | 1 (Herbicidal ratio of 5% or more and less than 20%) | 4 (Herbicidal ratio of 70% or more and less than 90%) | 4 (Herbicidal ratio of 70% or more and less than 90%) | 4 (Herbicidal ratio of 70% or more and less than 90%) | 4 (Herbicidal ratio of 70% or more and less than 90%) | 0 (Herbicidal ratio of 5% or less (almost no effect)) | 1 (Herbicidal ratio of 5% or more and less than 20%) | 2 (Herbicidal ratio of 20% or more and less than 40%) | 3 (Herbicidal ratio of 40% or more and less than 70%) |  |
| Cc1nnc(NC(=O)c2ccc(C(F)F)n3c(C(C)C)nnc23)o1 [1-053] | 1 (Herbicidal ratio of 5% or more and less than 20%) | 0 (Herbicidal ratio of 5% or less (almost no effect)) | 2 (Herbicidal ratio of 20% or more and less than 40%) |  |  |  |  |  |  |  |  |  |  |  |  |  |  |  |  |  | M (Abutilon theophrasti) herbicidal effect [4]: 4 (Herbicidal ratio of 70% or more and less than 90%); J (Alopecurus myosuroides) herbicidal effect [5]: 0 (Herbicidal ratio of 5% or less (almost no effect)); L (Apera spica-venti.) herbicidal effect [6]: 0 (Herbicidal ratio of 5% or less (almost no effect)); I (Avena fatua) herbicidal effect [7]: 1 (Herbicidal ratio of 5% or more and less than 20%); O (Chenopodium album) herbicidal effect [8]: 5 (Herbicidal ratio of 90% or more (almost completely withered)); F (Digitaria ciliaris) herbicidal effect [9]: 3 (Herbicidal ratio of 40% or more and less than 70%); H (Echinochloa crus-galli var. crus-galli) herbicidal effect [10]: 3 (Herbicidal ratio of 40% or more and less than 70%); Q (Galium spurium) herbicidal effect [11]: 2 (Herbicidal ratio of 20% or more and less than 40%); K (Lolium multiflorum Lam.) herbicidal effect [12]: 0 (Herbicidal ratio of 5% or less (almost no effect)); G (Setaria viridis) herbicidal effect [13]: 2 (Herbicidal ratio of 20% or more and less than 40%); R (Veronica persica) herbicidal effect [14]: 4 (Herbicidal ratio of 70% or more and less than 90%); f (Beta vulgaris ssp. vulgaris) effect on crop [15]: 3 (Herbicidal ratio of 40% or more and less than 70%); g (Brassica campestris L.) effect on crop [16]: 1 (Herbicidal ratio of 5% or more and less than 20%); c (Glycine max) effect on crop [17]: 0 (Herbicidal ratio of 5% or less (almost no effect)); e (Triticum aestivum) effect on crop [18]: 0 (Herbicidal ratio of 5% or less (almost no effect)); b (Zea mays) effect on crop [19]: 0 (Herbicidal ratio of 5% or less (almost no effect)); d (directly sowed Oryza sativa) effect on crop [20]: 3 (Herbicidal ratio of 40% or more and less than 70%) |
| CSCCc1nnc2c(C(=O)Nc3nnc(C)o3)ccc(C(F)(F)F)n12 [1-083] | 2 (Herbicidal ratio of 20% or more and less than 40%) | 2 (Herbicidal ratio of 20% or more and less than 40%) | 2 (Herbicidal ratio of 20% or more and less than 40%) | 5 (Herbicidal ratio of 90% or more (almost completely withered)) | 0 (Herbicidal ratio of 5% or less (almost no effect)) | 0 (Herbicidal ratio of 5% or less (almost no effect)) | 3 (Herbicidal ratio of 40% or more and less than 70%) | 5 (Herbicidal ratio of 90% or more (almost completely withered)) | 5 (Herbicidal ratio of 90% or more (almost completely withered)) | 5 (Herbicidal ratio of 90% or more (almost completely withered)) | 4 (Herbicidal ratio of 70% or more and less than 90%) | 1 (Herbicidal ratio of 5% or more and less than 20%) | 5 (Herbicidal ratio of 90% or more (almost completely withered)) | 4 (Herbicidal ratio of 70% or more and less than 90%) | 5 (Herbicidal ratio of 90% or more (almost completely withered)) | 4 (Herbicidal ratio of 70% or more and less than 90%) | 1 (Herbicidal ratio of 5% or more and less than 20%) | 1 (Herbicidal ratio of 5% or more and less than 20%) | 1 (Herbicidal ratio of 5% or more and less than 20%) | 4 (Herbicidal ratio of 70% or more and less than 90%) |  |
| Cc1nnc(NC(=O)c2ccc(C(F)(F)F)n3c(SC(C)(C)C)nnc23)o1 [1-095] | 4 (Herbicidal ratio of 70% or more and less than 90%) | 4 (Herbicidal ratio of 70% or more and less than 90%) | 5 (Herbicidal ratio of 90% or more (almost completely withered)) | 4 (Herbicidal ratio of 70% or more and less than 90%) | 1 (Herbicidal ratio of 5% or more and less than 20%) | 1 (Herbicidal ratio of 5% or more and less than 20%) | 1 (Herbicidal ratio of 5% or more and less than 20%) | 5 (Herbicidal ratio of 90% or more (almost completely withered)) | 5 (Herbicidal ratio of 90% or more (almost completely withered)) | 5 (Herbicidal ratio of 90% or more (almost completely withered)) | 3 (Herbicidal ratio of 40% or more and less than 70%) | 2 (Herbicidal ratio of 20% or more and less than 40%) | 3 (Herbicidal ratio of 40% or more and less than 70%) | 5 (Herbicidal ratio of 90% or more (almost completely withered)) | 5 (Herbicidal ratio of 90% or more (almost completely withered)) | 3 (Herbicidal ratio of 40% or more and less than 70%) | 2 (Herbicidal ratio of 20% or more and less than 40%) | 1 (Herbicidal ratio of 5% or more and less than 20%) | 0 (Herbicidal ratio of 5% or less (almost no effect)) | 3 (Herbicidal ratio of 40% or more and less than 70%) |  |
| CCCc1nnc2c(C(=O)Nc3nnc(C)o3)ccc(C(F)(F)F)n12 [1-024] | 4 (Herbicidal ratio of 70% or more and less than 90%) | 0 (Herbicidal ratio of 5% or less (almost no effect)) | 1 (Herbicidal ratio of 5% or more and less than 20%) |  |  |  |  |  |  |  |  |  |  |  |  |  |  |  |  |  | M (Abutilon theophrasti) herbicidal effect [4]: 4 (Herbicidal ratio of 70% or more and less than 90%); J (Alopecurus myosuroides) herbicidal effect [5]: 0 (Herbicidal ratio of 5% or less (almost no effect)); L (Apera spica-venti.) herbicidal effect [6]: 1 (Herbicidal ratio of 5% or more and less than 20%); I (Avena fatua) herbicidal effect [7]: 1 (Herbicidal ratio of 5% or more and less than 20%); O (Chenopodium album) herbicidal effect [8]: 5 (Herbicidal ratio of 90% or more (almost completely withered)); F (Digitaria ciliaris) herbicidal effect [9]: 4 (Herbicidal ratio of 70% or more and less than 90%); H (Echinochloa crus-galli var. crus-galli) herbicidal effect [10]: 4 (Herbicidal ratio of 70% or more and less than 90%); Q (Galium spurium) herbicidal effect [11]: 3 (Herbicidal ratio of 40% or more and less than 70%); K (Lolium multiflorum Lam.) herbicidal effect [12]: 0 (Herbicidal ratio of 5% or less (almost no effect)); G (Setaria viridis) herbicidal effect [13]: 3 (Herbicidal ratio of 40% or more and less than 70%); R (Veronica persica) herbicidal effect [14]: 4 (Herbicidal ratio of 70% or more and less than 90%); f (Beta vulgaris ssp. vulgaris) effect on crop [15]: 4 (Herbicidal ratio of 70% or more and less than 90%); g (Brassica campestris L.) effect on crop [16]: 4 (Herbicidal ratio of 70% or more and less than 90%); c (Glycine max) effect on crop [17]: 2 (Herbicidal ratio of 20% or more and less than 40%); e (Triticum aestivum) effect on crop [18]: 0 (Herbicidal ratio of 5% or less (almost no effect)); b (Zea mays) effect on crop [19]: 0 (Herbicidal ratio of 5% or less (almost no effect)); d (directly sowed Oryza sativa) effect on crop [20]: 4 (Herbicidal ratio of 70% or more and less than 90%) |
